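How tested: cells in 96-well plates exposed to compound for 48 hours at five concentrations. GI50 = concentration required for 50% inhibition of growth.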 Calls of active or inactive are those of the source. Cut-off read from the data, not from the text of the source: active = GI50 up to about 1.1 µM and inactive = higher.
What was measured:
Assay in all cases: inhibition of tumour cell growth, NCI panel, 48 h
UACC-257 = system: UACC-257
HT-29 = system: HT-29
SF-295 = system: SF-295
KM12 = system: KM12
HL-60 = system: HL-60
SR = system: SR
NCI-H522 = system: NCI-H522
SK-MEL-2 = system: SK-MEL-2
A549 = system: A549
U-251 = system: U-251
786-0 = system: 786-0
Malme-3M = system: Malme-3M
SNB-75 = system: SNB-75
HCC 2998 = system: HCC 2998
M14 = system: M14
HCT-15 = system: HCT-15
MDA-MB-435 = system: MDA-MB-435
MDA-N = system: MDA-N
MCF7 = system: MCF7
DU-145 = system: DU-145

Structure (SMILES)	GI50 (UACC-257)	GI50 (HT-29)	GI50 (SF-295)	GI50 (KM12)	GI50 (HL-60)	GI50 (SR)	GI50 (NCI-H522)	GI50 (SK-MEL-2)	GI50 (A549)	GI50 (U-251)	GI50 (786-0)	GI50 (Malme-3M)	GI50 (SNB-75)	GI50 (HCC 2998)	GI50 (M14)	GI50 (HCT-15)	GI50 (MDA-MB-435)	GI50 (MDA-N)	GI50 (MCF7)	GI50 (DU-145)
COc1ccc(OC)c(-c2cc(O)c3cc4c(cc3n2)OCO4)c1	7.69 µM (inactive)	4.12 µM (inactive)	4.15 µM (inactive)	3.86 µM (inactive)	2.96 µM (inactive)	3.96 µM (inactive)	2.85 µM (inactive)	4.1 µM (inactive)	5.87 µM (inactive)	7.59 µM (inactive)	6.47 µM (inactive)	3.49 µM (inactive)	3.44 µM (inactive)	4.67 µM (inactive)	3.94 µM (inactive)	4.22 µM	–	–	–	–
Oc1cc(-c2cccs2)nc2cc3c(cc12)OCO3	3.72 µM (inactive)	13.6 µM (inactive)	3.48 µM (inactive)	2.45 µM (inactive)	4.37 µM (inactive)	4.73 µM (inactive)	2.05 µM (inactive)	4.99 µM (inactive)	4.9 µM (inactive)	7.43 µM (inactive)	3.78 µM (inactive)	3.08 µM (inactive)	1.41 µM (inactive)	7.13 µM (inactive)	2.55 µM (inactive)	4.23 µM	–	–	–	–
COc1cc(C2=NN(C)C(c3ccc([N+](=O)[O-])o3)C2)cc(OC)c1OC (configuration not stated)	> 100 µM (inactive)	72.4 µM (inactive)	> 100 µM (inactive)	> 100 µM (inactive)	18.2 µM (inactive)	0.0736 µM (active)	43.7 µM (inactive)	> 100 µM (inactive)	> 100 µM (inactive)	56.8 µM (inactive)	23.1 µM (inactive)	> 100 µM (inactive)	83.2 µM (inactive)	> 100 µM (inactive)	53.8 µM (inactive)	18.2 µM	–	–	–	–
CC1=C(C(=O)Nc2ccc(C)cc2)C(c2cccc([N+](=O)[O-])c2)C(C(=O)Nc2ccc(C)cc2)=C(C)N1	21.2 µM (inactive)	17.2 µM (inactive)	28.1 µM (inactive)	15.6 µM (inactive)	16.1 µM (inactive)	21.2 µM (inactive)	27.4 µM (inactive)	20.8 µM (inactive)	26.2 µM (inactive)	20.7 µM (inactive)	26.2 µM (inactive)	28.2 µM (inactive)	16.7 µM (inactive)	30.6 µM (inactive)	16.9 µM (inactive)	26.2 µM	–	–	–	–
CCSc1nc2sc(C)c(C)c2c(=O)n1-c1ccc(C(=O)O)cc1	98.4 µM (inactive)	61 µM (inactive)	40.9 µM (inactive)	54.8 µM (inactive)	35.3 µM (inactive)	41.4 µM (inactive)	23.2 µM (inactive)	> 100 µM (inactive)	65.3 µM (inactive)	55.5 µM (inactive)	> 100 µM (inactive)	> 100 µM (inactive)	13.6 µM (inactive)	85.1 µM (inactive)	> 100 µM (inactive)	39.9 µM	–	–	–	–
COc1c(OC(C)=O)cc2c(OC(C)=O)c1CC(C)CC(OC)C(O)C(C)/C=C(\C)C(OC(N)=O)C(OC)/C=C\C=C(/C)C(=O)N2 (configuration not stated)	> 100 µM (inactive)	> 81.8 µM (inactive)	> 100 µM (inactive)	> 100 µM (inactive)	> 41.5 µM (inactive)	> 44.2 µM (inactive)	10.7 µM (inactive)	> 100 µM (inactive)	> 71.3 µM (inactive)	> 100 µM (inactive)	> 81.3 µM (inactive)	98.9 µM (inactive)	> 100 µM (inactive)	36.5 µM (inactive)	> 100 µM (inactive)	> 64.7 µM	–	–	–	–
Cc1cc(C)c(C(=O)O)c(N)c1O	> 100 µM (inactive)	> 100 µM (inactive)	> 100 µM (inactive)	> 100 µM (inactive)	> 100 µM (inactive)	> 100 µM (inactive)	> 100 µM (inactive)	> 100 µM (inactive)	> 100 µM (inactive)	> 100 µM (inactive)	> 100 µM (inactive)	> 100 µM (inactive)	> 100 µM (inactive)	> 100 µM (inactive)	> 100 µM (inactive)	> 100 µM	–	–	–	–
O=C(O)CSC(NC(=O)C(C(F)(F)F)C(F)(F)F)(C(F)(F)F)C(F)(F)F	> 100 µM (inactive)	> 100 µM (inactive)	–	–	> 100 µM (inactive)	> 100 µM (inactive)	–	> 100 µM (inactive)	> 100 µM (inactive)	> 100 µM (inactive)	> 100 µM (inactive)	–	> 100 µM (inactive)	> 100 µM (inactive)	> 100 µM (inactive)	> 100 µM	> 100 µM (inactive)	> 100 µM (inactive)	–	–
O=S(=O)(C1=CC(S(=O)(=O)c2ccccc2)COC1)c1ccccc1 (configuration not stated)	> 100 µM (inactive)	> 100 µM (inactive)	> 100 µM (inactive)	> 100 µM (inactive)	> 100 µM (inactive)	> 100 µM (inactive)	> 100 µM (inactive)	> 100 µM (inactive)	> 100 µM (inactive)	> 100 µM (inactive)	> 100 µM (inactive)	> 100 µM (inactive)	> 100 µM (inactive)	> 100 µM (inactive)	> 100 µM (inactive)	> 100 µM	–	–	–	–
CN(C)C1(N(C)C)Oc2c(c(=O)n(C)c(=O)n2C)C(c2ccccc2Br)C1(F)F (configuration not stated)	> 100 µM (inactive)	–	> 100 µM (inactive)	> 100 µM (inactive)	–	–	–	> 100 µM (inactive)	> 100 µM (inactive)	> 100 µM (inactive)	> 100 µM (inactive)	–	> 100 µM (inactive)	> 100 µM (inactive)	> 100 µM (inactive)	> 100 µM	> 100 µM (inactive)	–	> 100 µM (inactive)	> 100 µM (inactive)
COc1ccc(OC)c(NC(=O)CCC/C(CC(=O)c2ccc(O)c(OC)c2)=N\Nc2nnc(C)n2N)c1	> 100 µM (inactive)	> 100 µM (inactive)	> 100 µM (inactive)	> 100 µM (inactive)	90.2 µM (inactive)	> 100 µM (inactive)	> 100 µM (inactive)	> 100 µM (inactive)	> 100 µM (inactive)	> 100 µM (inactive)	> 100 µM (inactive)	> 100 µM (inactive)	37.9 µM (inactive)	> 100 µM (inactive)	> 100 µM (inactive)	> 100 µM	–	–	–	–
CC(C)(C)c1nc2c(o1)/C(=N\c1ccccc1)c1ccccc1C2=O	1.72 µM (inactive)	22.7 µM (inactive)	3.99 µM (inactive)	11.7 µM (inactive)	2.87 µM (inactive)	3.94 µM (inactive)	2.91 µM (inactive)	2.53 µM (inactive)	7.6 µM (inactive)	3.85 µM (inactive)	24.4 µM (inactive)	1.4 µM (inactive)	5.61 µM (inactive)	18.6 µM (inactive)	2.33 µM (inactive)	4.25 µM	–	–	–	–
Cn1c([C@H](C#N)c2ncccc2[N+](=O)[O-])nc2ccccc21	> 100 µM (inactive)	> 100 µM (inactive)	28.4 µM (inactive)	> 100 µM (inactive)	> 100 µM (inactive)	> 100 µM (inactive)	14.4 µM (inactive)	40.6 µM (inactive)	83.9 µM (inactive)	34.8 µM (inactive)	31.8 µM (inactive)	83.2 µM (inactive)	28.2 µM (inactive)	> 100 µM (inactive)	> 100 µM (inactive)	> 100 µM	> 100 µM (inactive)	> 100 µM (inactive)	21 µM (inactive)	–
COc1cc2c(cc1OCCCC(=O)Nc1cc(C(=O)Nc3cc(C(=O)Nc4cc(C(=O)NCCCN(C)C)n(C)n4)n(C)n3)n(C)n1)N=CC1CCCN1C2=O (configuration not stated)	19 µM (inactive)	20 µM (inactive)	32.5 µM (inactive)	21.1 µM (inactive)	6.14 µM (inactive)	2.77 µM (inactive)	1.69 µM (inactive)	24.8 µM (inactive)	55.2 µM (inactive)	9.77 µM (inactive)	4.81 µM (inactive)	10.8 µM (inactive)	27.9 µM (inactive)	41.9 µM (inactive)	28 µM (inactive)	5.69 µM	20.1 µM (inactive)	–	21.1 µM (inactive)	35.4 µM (inactive)
CCOCc1cc(=O)c2cc3c(cc2o1)OC(C)(C)CC3	65.3 µM (inactive)	> 100 µM (inactive)	93.8 µM (inactive)	> 100 µM (inactive)	61.2 µM (inactive)	72.3 µM (inactive)	> 100 µM (inactive)	> 100 µM (inactive)	> 100 µM (inactive)	> 100 µM (inactive)	> 100 µM (inactive)	> 100 µM (inactive)	> 100 µM (inactive)	> 100 µM (inactive)	> 100 µM (inactive)	> 100 µM	–	–	–	–
Cc1cc(C)nc(NC(P(=O)(O)O)P(=O)(O)O)n1	> 100 µM (inactive)	> 100 µM (inactive)	> 100 µM (inactive)	> 100 µM (inactive)	–	–	> 100 µM (inactive)	–	> 100 µM (inactive)	–	> 100 µM (inactive)	> 100 µM (inactive)	–	> 100 µM (inactive)	> 100 µM (inactive)	> 100 µM	–	> 100 µM (inactive)	> 100 µM (inactive)	> 100 µM (inactive)
Cc1ccc(Nc2nc(C)c(C(/C=C/c3ccc(/C=C/C(=N/NC(=O)C[n+]4ccccc4)c4sc(Nc5ccc(C)cc5[N+](=O)[O-])nc4C)cc3)=N\NC(=O)C[n+]3ccccc3)s2)c([N+](=O)[O-])c1	> 100 µM (inactive)	> 100 µM (inactive)	> 100 µM (inactive)	> 100 µM (inactive)	27.4 µM (inactive)	67.3 µM (inactive)	> 100 µM (inactive)	> 100 µM (inactive)	> 100 µM (inactive)	> 100 µM (inactive)	> 100 µM (inactive)	> 100 µM (inactive)	33.5 µM (inactive)	> 100 µM (inactive)	> 100 µM (inactive)	88.1 µM	–	–	–	–
